What was measured:
[1] = test system: HIV drug resistant strains (pL10R and p1617-1); format: cell-based

SMILES	inhibitory activity on HIV infectivity (in words) [1]	cytotoxicity (transfected 293 cells)
COc1ccc2c(Cc3c4ccccc4cc4ccccc34)cncc2c1O [Compound 1334]	lesser inhibitory activity	
O=C(O)C[S+]([O-])c1ccc2c3c(cccc13)C(=O)c1ccccc1-2 (centres unmarked) [Compound 111]		without significant cytotoxicity

Source: patent US20100035925A1, “COMPOUNDS, PHARMACEUTICAL CO[…] DMETHODS FOR […] INFECTIVITY” ([…], INC, priority 2004, published 2010)
